Results from patent publication US4547513A, “2-Arylbenzothiazoline derivatives and their use in treating angina cordis” (Santen Pharmaceutical Co., Ltd., priority 1983, dated 1985).
pIC50: −log10 of the molar value. Where a name gives a salt, the structure may show the parent alone.

How the values were obtained:
guineapig teania coli = experiment: Calciumantagonistic activity: inhibition of Ca++-evoked contraction of isolated guineapig teania coli (Pharmacological test I); format: cell-based; settings: Cavia porcellus, 5 min, Ca++-free-high-K Krebs solution, 32° C., 5 minutes exposure before CaCl2 (3×10^-4M), read-out: Calciumantagonistic activity IC50 (50% inhibition of Ca++-evoked contraction)
Method: The action potentials on the smooth muscles of uterus, teania coli and portal vein depend on calcium ion, and therefore these smooth muscle preparations are useful for screening of calciumantagonists. We measured the calciumantagonistic activity of the compounds by the method using guineapig teania coli preparation.
Isolated guineapig teania coli was suspended in a 20 ml organ bath with Krebs solution at 32° C. and bubbled with 5% carbon dioxide in oxygen. After equilibration, the muscle was washed with Ca^++ -free Krebs solution, and when the muscle had relaxed to basal level, it was suspended in Ca^++ -free-high-K Krebs solution.
The muscule was exposed to the test compounds for 5 minutes before addition of CaCl2, and the contraction evoked by CaCl2 (3×10^-4M) was recorded isotonically. The calciumantagonistic activity was represented by the concentration of the test compound which elicited 50% inhibition of Ca^++ -evoked contraction (IC50).

[1] = test system: platelet aggregation (rabbit platelet rich plasma); experiment: Platelet antiaggregatory activity in rabbit platelet rich plasma in vitro (Pharmacological test II); format: cell-based; settings: Oryctolagus cuniculus, rabbit PRP, 1 minute preincubation at 37° C., induced by collagen (3μg/ml) or ADP (3μM), inducer not given, read-out: Antiaggregation activity IC50 (50% inhibition of the control response)
Method: Blood was obtained from an anesthetized rabbit using 0.1 volume of 3.8% sodium citrate as anticoagulant. Platelet rich plasma (PRP) was isolated by centrifugation at 650 rpm for 10 minutes at room temperature. After preincubation of PRP (0.25 ml) with various concentrations of the test compounds (14μl) for 1 minute at 37° C., collagen (3μg/ml: final concentration) or ADP (3μM: final concentration) was added to induce aggregation and the aggregation profiles were monitored by RIKADENKI six-channel aggregometer. The control experiment contained saline instead of the test compound.
The antiaggregatory activity was represented by the concentration of the test compounds which elicited 50% inhibition of the control response.

Compound | pIC50 (guineapig teania coli) | pIC50 [1]
COc1ccc(OCCCCN2CCC(C(O)c3ccccc3)CC2)c(C2Sc3ccccc3N2C(C)=O)c1 (stereo not drawn) [compound 5, 3-Acetyl-2-[2-[4-[4-(α-hydroxybenzyl)-1-piperidyl]butoxy]5-methoxyphenyl]benzothiazoline maleate] | 5.09 | 
COc1ccc(OCCCCN2CCC(C(=O)Cc3ccccc3)CC2)c(C2Sc3ccccc3N2C(C)=O)c1 (stereo not shown) [compound 7, 3-Acetyl-2-[2-[4-(4-benzylcarbonyl-1piperidyl)butoxy]-5-methoxyphenyl]benzothiazoline maleate] | 5.49 | 
COc1ccc(OCCCCN2CCC(C(=O)c3ccc(F)cc3)CC2)c(C2Sc3ccccc3N2C(C)=O)c1 (stereo not shown) [compound 6, 3Acetyl-2-[2-[4-[4-(4-fluorobenzoyl)-1-piperidyl]butoxy]-5-methoxyphenyl]benzothiazoline maleate] | 5.80 | 6.54
COc1ccc(OCCCCN2CCC(C(=O)c3ccc(Cl)cc3)CC2)c(C2Sc3ccccc3N2C(C)=O)c1 (stereo not shown) [compound 4, 3-Acetyl-2-[2-[4-[4-(4-chlorobenzoyl)-1-piperidyl]butoxy]-5-methoxyphenyl]benzothiazoline maleate] | 5.06 | 5.49
COc1ccc(OCCCCN2CCC(C(=O)c3ccc(C)cc3)CC2)c(C2Sc3ccccc3N2C(C)=O)c1 (stereo not shown) [compound 3, 3-Acetyl-2-(5-methoxy-2-[4-[4-(4-methylbenzoyl)-1-piperidyl]butoxy]phenyl]benzothiazoline maleate] |  | 5.49
